Key:
Assay in all cases: relative viability (nuclei count vs DMSO), 5 days (fraction); higher = more cells survive
[1] = system: A-427
Summary of the method: (§1)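 Lung cancer cell lines, seeded in 1536-well plates, were treated the following day by pin tool with a single drug or with five library-drug doses (not always all listed) in √10 steps on top of a fixed anchor-drug dose. Cells were fixed and nuclei stained in one step after 5 days, and nuclei were counted. Relative viability is the nuclei count for treated wells divided by that for vehicle wells, reported as medians of duplicate plates.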

[2] = system: ABC-1
Summary of the method: as §1

[3] = system: COR-L23
Summary of the method: as §1

[4] = system: EMC-BAC-2
Summary of the method: as §1

[5] = system: HARA
Summary of the method: as §1

[6] = system: HOP-62
Summary of the method: as §1

[7] = system: LK-2
Summary of the method: as §1

[8] = system: LU99A
Summary of the method: as §1

[9] = system: LXF-289
Summary of the method: as §1

[10] = system: NCI-H1792
Summary of the method: as §1

[11] = system: NCI-H1793
Summary of the method: as §1

[12] = system: NCI-H1944
Summary of the method: as §1

[13] = system: NCI-H1993
Summary of the method: as §1

[14] = system: NCI-H2009
Summary of the method: as §1

[15] = system: NCI-H2170
Summary of the method: as §1

[16] = system: NCI-H2228
Summary of the method: as §1

[17] = system: NCI-H3122
Summary of the method: as §1

[18] = system: NCI-H596
Summary of the method: as §1

[19] = system: NCI-H727
Summary of the method: as §1

[20] = system: PC-3 [JPC-3]
Summary of the method: as §1

[21] = system: SK-LU-1
Summary of the method: as §1

[22] = system: SK-MES-1
Summary of the method: as §1

[23] = system: SW 1573
Summary of the method: as §1

[24] = system: SW 900
Summary of the method: as §1

Clc1ccc(Nc2nnc(Cc3ccncc3)c3ccccc23)cc1 [Vatalanib] + Cc1nc(Nc2ncc(C(=O)Nc3c(C)cccc3Cl)s2)cc(N2CCN(CCO)CC2)n1 [Dasatinib] (partner 0.075 µM)
relative viability ([1]; first compound 0.04 µM): 0.784 | relative viability ([1]; first compound 0.1265 µM): 0.642 | relative viability ([1]; first compound 0.4 µM): 0.638 | relative viability ([1]; first compound 1.265 µM): 0.662 | relative viability ([1]; first compound 4 µM): 0.732 | relative viability ([2]; first compound 0.04 µM): 0.722 | relative viability ([2]; first compound 1.265 µM): 0.514 | relative viability ([2]; first compound 4 µM): 0.581 | relative viability ([3]; first compound 0.04 µM): 0.502 | relative viability ([3]; first compound 0.1265 µM): 0.502 | relative viability ([3]; first compound 0.4 µM): 0.651 | relative viability ([3]; first compound 1.265 µM): 0.414 | relative viability ([3]; first compound 4 µM): 0.519 | relative viability ([4]; first compound 0.04 µM): 0.329 | relative viability ([4]; first compound 0.1265 µM): 0.31 | relative viability ([4]; first compound 0.4 µM): 0.355 | relative viability ([4]; first compound 1.265 µM): 0.306 | relative viability ([4]; first compound 4 µM): 0.331 | relative viability ([5]; first compound 0.04 µM): 0.265 | relative viability ([5]; first compound 0.1265 µM): 0.214 | relative viability ([5]; first compound 0.4 µM): 0.284 | relative viability ([5]; first compound 1.265 µM): 0.212 | relative viability ([5]; first compound 4 µM): 0.248 | relative viability ([6]; first compound 0.04 µM): 0.786 | relative viability ([6]; first compound 0.1265 µM): 0.563 | relative viability ([6]; first compound 0.4 µM): 0.712 | relative viability ([6]; first compound 1.265 µM): 0.635 | relative viability ([6]; first compound 4 µM): 0.602 | relative viability ([7]; first compound 0.04 µM): 0.322 | relative viability ([7]; first compound 0.1265 µM): 0.219 | relative viability ([7]; first compound 0.4 µM): 0.244 | relative viability ([7]; first compound 1.265 µM): 0.27 | relative viability ([7]; first compound 4 µM): 0.294 | relative viability ([8]; first compound 0.04 µM): 0.499 | relative viability ([8]; first compound 0.1265 µM): 0.58 | relative viability ([8]; first compound 0.4 µM): 0.685 | relative viability ([8]; first compound 1.265 µM): 0.44 | relative viability ([8]; first compound 4 µM): 0.583 | relative viability ([9]; first compound 0.04 µM): 0.233 | relative viability ([9]; first compound 0.1265 µM): 0.269 | relative viability ([9]; first compound 0.4 µM): 0.336 | relative viability ([9]; first compound 1.265 µM): 0.283 | relative viability ([9]; first compound 4 µM): 0.204 | relative viability ([10]; first compound 0.04 µM): 0.724 | relative viability ([10]; first compound 0.1265 µM): 0.814 | relative viability ([10]; first compound 0.4 µM): 0.758 | relative viability ([10]; first compound 1.265 µM): 0.811 | relative viability ([10]; first compound 4 µM): 0.759 | relative viability ([11]; first compound 0.04 µM): 0.379 | relative viability ([11]; first compound 0.1265 µM): 0.377 | relative viability ([11]; first compound 0.4 µM): 0.458 | relative viability ([11]; first compound 1.265 µM): 0.349 | relative viability ([11]; first compound 4 µM): 0.4 | relative viability ([12]; first compound 0.04 µM): 0.227 | relative viability ([12]; first compound 0.1265 µM): 0.228 | relative viability ([12]; first compound 0.4 µM): 0.254 | relative viability ([12]; first compound 1.265 µM): 0.23 | relative viability ([12]; first compound 4 µM): 0.228 | relative viability ([13]; first compound 0.04 µM): 0.727 | relative viability ([13]; first compound 0.1265 µM): 0.651 | relative viability ([13]; first compound 0.4 µM): 0.574 | relative viability ([13]; first compound 1.265 µM): 0.552 | relative viability ([13]; first compound 4 µM): 0.578 | relative viability ([14]; first compound 0.04 µM): 0.288 | relative viability ([14]; first compound 0.1265 µM): 0.256 | relative viability ([14]; first compound 0.4 µM): 0.35 | relative viability ([14]; first compound 1.265 µM): 0.303 | relative viability ([14]; first compound 4 µM): 0.283 | relative viability ([15]; first compound 0.04 µM): 0.521 | relative viability ([15]; first compound 0.1265 µM): 0.486 | relative viability ([15]; first compound 0.4 µM): 0.556 | relative viability ([15]; first compound 1.265 µM): 0.483 | relative viability ([15]; first compound 4 µM): 0.507 | relative viability ([16]; first compound 0.04 µM): 0.494 | relative viability ([16]; first compound 0.1265 µM): 0.483 | relative viability ([16]; first compound 0.4 µM): 0.595 | relative viability ([16]; first compound 1.265 µM): 0.482 | relative viability ([16]; first compound 4 µM): 0.447 | relative viability ([17]; first compound 0.04 µM): 0.986 | relative viability ([17]; first compound 0.1265 µM): 0.838 | relative viability ([17]; first compound 0.4 µM): 0.795 | relative viability ([17]; first compound 1.265 µM): 0.768 | relative viability ([17]; first compound 4 µM): 0.787 | relative viability ([18]; first compound 0.04 µM): 0.643 | relative viability ([18]; first compound 0.1265 µM): 0.652 | relative viability ([18]; first compound 0.4 µM): 0.637 | relative viability ([18]; first compound 1.265 µM): 0.518 | relative viability ([18]; first compound 4 µM): 0.592 | relative viability ([19]; first compound 0.04 µM): 0.339 | relative viability ([19]; first compound 0.1265 µM): 0.37 | relative viability ([19]; first compound 0.4 µM): 0.326 | relative viability ([19]; first compound 1.265 µM): 0.41 | relative viability ([19]; first compound 4 µM): 0.425 | relative viability ([20]; first compound 0.04 µM): 0.949 | relative viability ([20]; first compound 0.1265 µM): 0.982 | relative viability ([20]; first compound 0.4 µM): 0.951 | relative viability ([20]; first compound 1.265 µM): 0.913 | relative viability ([20]; first compound 4 µM): 0.891 | relative viability ([21]; first compound 0.04 µM): 0.182 | relative viability ([21]; first compound 0.1265 µM): 0.188 | relative viability ([21]; first compound 0.4 µM): 0.208 | relative viability ([21]; first compound 1.265 µM): 0.184 | relative viability ([21]; first compound 4 µM): 0.178 | relative viability ([22]; first compound 0.04 µM): 0.346 | relative viability ([22]; first compound 0.1265 µM): 0.439 | relative viability ([22]; first compound 0.4 µM): 0.32 | relative viability ([22]; first compound 1.265 µM): 0.348 | relative viability ([22]; first compound 4 µM): 0.34 | relative viability ([23]; first compound 0.04 µM): 0.73 | relative viability ([23]; first compound 0.1265 µM): 0.496 | relative viability ([23]; first compound 0.4 µM): 0.645 | relative viability ([23]; first compound 1.265 µM): 0.395 | relative viability ([23]; first compound 4 µM): 0.476 | relative viability ([24]; first compound 0.1265 µM): 0.535 | relative viability ([24]; first compound 0.4 µM): 0.599 | relative viability ([24]; first compound 1.265 µM): 0.474 | relative viability ([24]; first compound 4 µM): 0.417
